# Counter-ions that a name gives are not always drawn. Like-named read-outs stand apart in the source and are kept apart here.
# Experiments:
# [1] = test system: reserpine induced hypothermia; experiment: Antagonism of reserpine induced hypothermia in mice (antidepressant / antireserpine activity); format: in vivo; conditions: for Relative Potency (antireserpine activity, Amitriptyline = 1): reserpine 5 mg/kg i.p., compounds given intraperitoneally
# Experimental: (§1) Anticonvulsant activity has also been discovered in the compounds of this invention. The compounds have been tested in mice for antidepressant, sedative, anticonvulsant and anticholinergic activity. The compounds were administered intraperitoneally and the activities of the compounds were compared with those of Amitriptyline. Antidepressant activity was evaluated by antagonism of reserpine (5 mg/kg, i.p.) induced hypothermia (P. S. J. Spencer in "Antidepressant Drugs", S. Garattini and M. N. G. Duhes, ed., Excerpta Medica Foundation, Amsterdam, pages 194-204 (1967)) and antireserpine activity was expressed as relative potency (Amitriptyline = 1). LD50 was calculated by the Litchfield-Wilcoxon method. CNS depressant activity was defined by the ability of the compounds to cause neurological deficit as measured by a traction test (S. Courvoisier, R. Ducrot, L. Julou; "Psychotropic Drugs" ed. by S. Garattini, V. Ghetti, page 373 (1957)) and spontaneous motor activity. (Spontaneous motor activity was measured by an ANIMEX apparatus.) Anticonvulsant activity was determined by antagonism of electroshock induced tonic extensor [L. S. Goodman, M. Singh Grewal, W. C. Brown and E. A. Swinyard, J. Pharmacol, Exptal. Therap., 108, 168 (1953)]. Central anticholinergic effect was assessed by testing a tremorine induced tremor in mice [G. M. Everett, L. E. Bloucus and J. M. Sheppard, Science 124, 79 (1956)]. Results of these tests are summarized in Tables I and II, in which ED50 is defined as the dose of the test compounds which prevents 50% of each response.
# [2] = Acute toxicity, LD50 (Litchfield-Wilcoxon method); format: in vivo; conditions: for LD50: mouse, in vivo, ip
# Experimental: as §1
# [3] = test system: tremorine induced tremor; experiment: Central anticholinergic effect: tremorine induced tremor in mice; format: in vivo; conditions: for ED50: Mus musculus, ip, read-out: Antitremorine Effect ED50
# Experimental: as §1
# [4] = test system: electroshock induced tonic extensor; experiment: Anticonvulsant activity: antagonism of electroshock induced tonic extensor; format: in vivo, mice; conditions: Mus musculus, ip, read-out: Anticonvulsant Activity ED50
# Experimental: as §1, with “Therap., 108, 168 (1953)].” left out, “Results of these tests are summarized in Tables I and II, in which ED50 is defined as the dose of the test compounds which prevents 50% of each response.” left out
# [5] = test system: neurological deficit (traction test); experiment: CNS depressant activity: muscle relaxant action (traction test); format: in vivo, mice; conditions: for ED50: Mus musculus, ip, read-out: Muscle Relaxant Action ED50
# Experimental: as §1
# [6] = test system: spontaneous motor activity; experiment: CNS depressant activity: spontaneous motor activity (ANIMEX apparatus); format: in vivo, mice; conditions: Mus musculus, ip, read-out: Spontaneous Motor Activity Depression ED50
# Experimental: as §1, with “Therap., 108, 168 (1953)].” left out, “Results of these tests are summarized in Tables I and II, in which ED50 is defined as the dose of the test compounds which prevents 50% of each response.” left out
# [7] = intraperitoneal, mice, Litchfield-Wilcoxon, read-out: LD50
structure (smiles),measurement,setting,value
"CN(C)CCCOc1ccccc1Oc1ccccc1 [2-(3-dimethylaminopropoxy) diphenyl ether hydrochloride, reference compound]","Relative Potency (antireserpine activity, Amitriptyline = 1)",[1],0.14
CNCCCOc1ccccc1Sc1ccccc1 [2-(3-methylaminopropoxy) diphenyl sulfide hydrochloride],"Relative Potency (antireserpine activity, Amitriptyline = 1)",[1],0.60
same,LD50,[2]; [7],135 mg/kg
NCCCCOc1ccccc1Sc1ccccc1 [2-(4-aminobutoxy) diphenyl sulfide hydrochloride],"Relative Potency (antireserpine activity, Amitriptyline = 1)",[1],0.36
CN(C)CCCCOc1ccccc1Sc1ccccc1 [2-(4-dimethylaminobutoxy)-diphenyl sulfide hydrochloride],"Relative Potency (antireserpine activity, Amitriptyline = 1)",[1],0.70
same,LD50,[2]; [7],130 mg/kg
CNCCCCOc1ccccc1Sc1ccccc1 [2-(4-methylaminobutoxy) diphenyl sulfide hydrochloride],antireserpine activity (in words),"[1]; i.p., from Tables I and II",comparable to that of Amitriptyline
same,"Relative Potency (antireserpine activity, Amitriptyline = 1)",[1],0.90
same,toxicity (in words),"[2]; mice, i.p., from Tables I and II",low toxicity
same,LD50,[2],120 mg/kg
same,ED50,"[3]; tremorine induced tremor, mice, i.p., central anticholinergic",30 mg/kg
same,anticholinergic action (in words),"[3]; mice, i.p.",weak CNS depressant and anticholinergic action
same,ED50,"[4]; electroshock, mice, i.p., dose which prevents 50% of response",> 60 mg/kg
same,ED50,"[5]; traction test, mice, i.p., CNS depressant activity",50 mg/kg
same,CNS depressant action (in words),"[5]; mice, i.p., traction test and spontaneous motor activity",weak
same,ED50,"[6]; ANIMEX, mice, i.p., CNS depressant activity",> 60 mg/kg
c1ccc(Sc2ccccc2OCCCCN2CCOCC2)cc1 [2-(4-morpholinobutoxy) diphenyl sulfide hydrochloride],"Relative Potency (antireserpine activity, Amitriptyline = 1)",[1],0.38
CN(C)CCCCCOc1ccccc1Sc1ccccc1 [2-(5-dimethylaminopentyloxy) diphenyl sulfide hydrochloride],"Relative Potency (antireserpine activity, Amitriptyline = 1)",[1],0.15
"CN(C)CCC=C1c2ccccc2CCc2ccccc21 [Amitriptyline, reference compound]",ED50,[3],4 mg/kg
same,ED50,[4],16 mg/kg
same,ED50,[5],15 mg/kg
same,ED50,[6],18 mg/kg

# Reference: patent US4060612A, “Pharmaceutically active 2-omega-aminoalkoxydiphenyl sulfides” (Mitsubishi Chemical Industries Ltd., priority 1976, dated 1977)
